Measured values published in patent publication US10905691B2, “Use of triazolo(4,5-d)pyrimidine derivatives for prevention and treatment of bacterial infection” (Universite de Liege, priority 2016, dated 2021).
In brackets after ≈: the same amount, converted by molar mass.

What was measured:
[1] = tested on: S. epidermidis; assay: Growth of low-density inoculum (OD600, 4 hr); format: cell-based, Staphylococcus epidermidis; settings: inoculum 0.08×10^6 CFU/ml
Text: Moreover, we have tested the effect of Triafluocyl on a low-density inoculum, 0.08×10^6 CFU/ml, from a culture of S. epidermidis in logarithmic phase.

[2] = tested on: E. faecalis ATCC 29212; assay: MIC determination (EUCAST, Mueller-Hinton broth); format: cell-based; settings: Enterococcus faecalis, ATCC29212
Method: Further experiments were conducted using different strains of E. faecalis, as clinically relevant Gram-positive bacterial strains: E. faecalis vancomycin-resistant (VRE) ATCC BAA-2365, and E. faecalis ATCC 29212 in order to determine the Minimal Inhibitory Concentration (MIC) which is the minimal concentration required to prevent bacterial growth; the Minimal Bactericidal Concentration (MBC) which determines the lowest concentration at which an antimicrobial agent kill a particular microorganism and a Minimum Duration for killing 99.9% bacteria (MDK99.9) which is a tolerance metric according to the EUCAST.
MIC determination: A single colony selected from the different strains of E. faecalis is resuspended and cultured in the appropriate medium overnight (O/N) in aerobic conditions (37° C. with 220 rpm shaking), next day a 1:100 inoculum in Mueller-Hinton broth (MHB) was incubated in aerobic conditions for 3 hr (OD=0.08-0.1) and an inoculum of 1:300 dilution, corresponding to 3×10^5 CFU/ml, was incubated in presence or absence of different concentrations of Triafluocyl in 1% DMSO. After O/N growth the OD of each culture was measured at 600 nm in a spectrophotometer (OD600). The MIC represents the concentration at which there is no visible growth of bacteria, i.e. ΔOD at 600 nm equal to zero (blank is the medium alone). […]

[3] = tested on: S. epidermidis mature biofilm; assay: Mature biofilm (24-hour) treatment, viable count; format: cell-based, Staphylococcus epidermidis; settings: 50 μg/ml
Text: In another experiment we let adhere 0.5×10^8 CFU/ml S. epidermidis cells for 4 hr and let the biofilm form for additional 24 hr in presence of 0.25% glucose, at this point we treated the biofilm with several concentrations of Triafluocyl for 24 hr in TSB with 0.25% glucose and determined the viable count (FIG. 7) as well as the percentage of live cells using the BacLight bacterial viability kit (Molecular Probes). For biofilm analysis, we first washed the biofilm to eliminate all planktonic bacteria and then the biofilm was detached mechanically using a scraper. To assure that the aggregates from the biofilm were completely dissociated, the suspension of cells was passed through a needle (0.5×16 mm) and a dilution was plated on TSA plates.

[4] = tested on: S. epidermidis mature biofilm; assay: Mature biofilm (24-hour) treatment, LIVE/DEAD BacLight staining; format: cell-based, Staphylococcus epidermidis; settings: 24 hr treatment of 24-hour biofilm
Text: In another experiment we let adhere 0.5×10^8 CFU/ml S. epidermidis cells for 4 hr and let the biofilm form for additional 24 hr in presence of 0.25% glucose, at this point we treated the biofilm with several concentrations of Triafluocyl for 24 hr in TSB with 0.25% glucose and determined the viable count (FIG. 7) as well as the percentage of live cells using the BacLight bacterial viability kit (Molecular Probes).
In the same experiment we also determined the percentage of live and dead bacteria. To do so we followed the procedure of the kit LIVE/DEAD from Molecular Probes. Briefly, the biofilm was resuspended in a solution of 0.9% NaCl and cells were stained with a mixture of SYTO9 (green fluorescence) and propidium iodide (PI) (red fluorescence) for 15 min in the dark. Stained cells were transferred in a 96-well plate and fluorescence was measured using the Enspire Spectrophotometer with excitation wavelength of 470 nm and emission spectra in the range of 490-700 nm. SYTO9 dye (green fluorescence 500-520 nm) penetrates all the cells (dead and live) and binds to DNA, while PI (red fluorescence in the range 610-630 nm) enters only in dead cells with a damaged cell membrane. When PI and SYTO9 are in the same cell the green fluorescence intensity decreases. […]

CCCSc1nc(N[C@@H]2C[C@H]2c2ccc(F)c(F)c2)c2nnn([C@@H]3C[C@H](OCCO)[C@@H](O)[C@H]3O)c2n1 [Triafluocyl, (1S,2S,3R,5S)-3-[7-[(1R,2S)-2-(3,4-difluorophenyl)cyclopropylamino]-5-(propylthio)-3H-[1,2,3]-triazolo[4,5-d]pyrimidin-3-yl]-5-(2-hydroxyethoxy)-1,2-cyclopentanediol]
decrease of OD600 compared to growth in absence of Triafluocyl ([1]; 5 μg/ml): 50%
growth (OD600) of low-density inoculum ([1]; 10 μg/ml): inhibited growth
growth (OD600) of low-density inoculum ([1]; 20 μg/ml): inhibited growth
MIC [2]: 40 µg/mL (≈ 76.5 µM)
number of viable cells in the biofilm ([3]; 24 hr treatment of 24-hour biofilm, 0.25% glucose): 1.5×10^5 CFU/ml
reduction of viable cells in the biofilm ([3]; 24 hr treatment, versus control): ~3 log
percentage of live bacteria in the biofilm ([4]; 20 μg/ml): 80%
percentage of live bacteria in the biofilm ([4]; 50 μg/ml): 30%
